In patent publication US4794113A, “Imidazolyl phenoxy compounds and method of use” (Yamanouchi Pharmaceutical Co., Ltd., priority 1983, dated 1988):

What was measured:
[1] = test system: platelet aggregation induced by arachidonic acid; test: Platelet Aggregation Prevention Activity (arachidonic acid induced, platelet rich plasma); format: cell-based, Nippon white rabbit; details: compound 100 μM; arachidonic acid final concentration 0.2 mM; rabbit PRP
Experimental: Platelet rich plasma (PRP) and platelet poor plasma (PPP) were prepared from venous blood of Nippon white rabbit. The platelet aggregation activity was measured in accordance with the method described in Born, G. V. R.; Nature, 194, 927 (1962) and the activity of preventing platelet agglutination of the compound against platelet aggregation induced by arachidonic acid (final concentration, 0.2 mM) was determined with an Aggrigometer (made by Payton Co.).

Hyperlipedemic rat = test: Lipid Reducing Activity (cholesterol/bile acid fed hyperlipidemic rats, serum lipids); format: in vivo, male Sprague-Dawley rats; details: 100 mg/kg/day p.o., 4 days; for HDL-C/LDL-C (cont. = 1): relative to control; for HDL-Chol** (cont. = 1): relative to control = 1
Experimental: Feed containing 1.5% cholesterol and 0.5% bile acid was given to male Sprague-Dawley rats aging 4 weeks old after birth for 7 days. A suspension of the compound of the present invention in a 0.5% aqueous methyl cellulose solution was administered daily via oral catheter for 4 days. After fastening overnight, blood was collected under ether anesthesia to determine the quantities of the total HDL and cholesterol in serum. The measurements of cholesterol and HDL were performed in accordance with the method described in Schettler, G. & Hussel; Arbetsmed. Sozialmed. Praventived., 10, 25 (1975) and the method described in T. T. Ishikawa et al.; Lipids, 11, 628 (1976), respectively.

Structure (SMILES): CCOC(=O)C(C)(C)CCCCOc1ccc(NC(=O)CCCn2ccnc2)cc1 [Example 35, Ethyl-6-[p-[4-(1-imidazolyl)-butyramido]phenoxy]-2,2-dimethylhexanoate]
- Platelet Aggregation inhibition (%) A.A. [1]: 7%
- Reduction Rate of T* and Chol** (*triglyceride, **cholesterol) (Hyperlipedemic rat): 52%
- HDL-C/LDL-C (cont. = 1) (Hyperlipedemic rat): 5.4
- HDL-Chol** (cont. = 1) (Hyperlipedemic rat): 2.49

Structure (SMILES): CCOC(=O)C(C)(C)CCCOc1ccc(-c2csc(C)n2)cc1 [Example 5, ethyl 5-[p-(2-methyl-4-thiazolyl)phenoxy]-2,2-dimethylpentanoate]
- Platelet Aggregation inhibition (%) A.A. [1]: 50%
- Reduction Rate of T* and Chol** (*triglyceride, **cholesterol) (Hyperlipedemic rat): 69%
- HDL-C/LDL-C (cont. = 1) (Hyperlipedemic rat): 8.00
- HDL-Chol** (cont. = 1) (Hyperlipedemic rat): 1.54

Structure (SMILES): CCOC(=O)C(C)(C)CCCCCOc1ccc(NC(=O)CCCCn2ccnc2)cc1 [Example 39]
- Platelet Aggregation inhibition (%) A.A. [1]: 100%
- Reduction Rate of T* and Chol** (*triglyceride, **cholesterol) (Hyperlipedemic rat): 23%
- HDL-C/LDL-C (cont. = 1) (Hyperlipedemic rat): 4.1
- HDL-Chol** (cont. = 1) (Hyperlipedemic rat): 3.11

Structure (SMILES): CCOC(=O)C(C)(C)CCCCCOc1ccc(-c2csc(-c3cccnc3)n2)cc1 [Example 2, ethyl 2,2-dimethyl-7-[p-[2-(3-pyridyl)-4-thiazolyl]phenoxy]heptanoate]
- Platelet Aggregation inhibition (%) A.A. [1]: 16%
- Reduction Rate of T* and Chol** (*triglyceride, **cholesterol) (Hyperlipedemic rat): 59%
- HDL-C/LDL-C (cont. = 1) (Hyperlipedemic rat): 22
- HDL-Chol** (cont. = 1) (Hyperlipedemic rat): 7.62

Structure (SMILES): CCOC(=O)C(C)(C)CCCCOc1ccc(OCCCCCn2ccnc2)cc1 [Example 30, ethyl 6-[p-[5-(1-imidazolyl)pentyloxy]phenoxy]-2,2-dimethylhexanoate]
- Platelet Aggregation inhibition (%) A.A. [1]: 57%
- Reduction Rate of T* and Chol** (*triglyceride, **cholesterol) (Hyperlipedemic rat): 48%
- HDL-C/LDL-C (cont. = 1) (Hyperlipedemic rat): 5.00
- HDL-Chol** (cont. = 1) (Hyperlipedemic rat): 1.78
